# Tested on: myocardial ischaemia and reperfusion (I/R) in the rat
# Assay: Myocardial lesion due to ischaemia and reperfusion (LAD occlusion): size of the infarct
# Type: in vivo
# Details: 10 mg/kg bolus 5 minutes prior to reperfusion, then 2 mg/kg/h; LAD occlusion 25 minutes, reperfusion 2 hours; p<0.01 (FIG. 1)
# Protocol: The in vivo model of myocardial lesion due to ischaemia and reperfusion was selected as the most suitable for checking the efficacy of the compounds MP1002 and MP1001 according to the invention.
# Male Sprague Dawley rats (220-230 g) were kept on a standard laboratory diet supplemented with “Nossan Pellets” (Nossan Company, Milan, Italy) and were housed for three weeks prior to the tests (relative humidity 50%±10, temperature 22° C.±1 and light/darkness cycle of 12/12 hours with first light at 7.30 a.m.); food and water were available ad libitum.
# The rats (twenty per group) were anaesthetized by intraperitoneal injection of chloral hydrate (380 mg/kg) and were then tracheotomized, intubated and ventilated with ambient air by a suitable ventilator; body temperature was kept at 38° C.±1 and the right carotid artery was cannulated and connected to a pressure transducer to monitor the mean arterial blood pressure (MAP). […]
# The coronary artery was occluded by tightening the occluder, a procedure which is correlated with the electrocardiographic and haemodynamic changes (drop in MAP) which are typical of myocardial ischaemia. […] The heart rate (HR) and MAP were monitored continuously. […]
row,Compound,reduction in the size of the infarct compared with the control
1,"CC1(C)CC(OC(=O)CCCCCCCCC(=O)OC2CC(C)(C)N(O)C(C)(C)C2)CC(C)(C)N1O [MP1002, bis(1-oxyl-2,2,6,6-tetramethyl-4-piperidinyl)decandioate]",80%
2,"CC1(C)CC(OC(=O)CCCCCCCCC(=O)OC2CC(C)(C)N(O)C(C)(C)C2)CC(C)(C)N1O [MP1001, BIS(1-HYDROXYL-2,2,6,6-TETRAMETHYL-4-PIPERIDINYL)DECANDIOATE]",78%

# — patent publication US8461186B2, “Use of N-piperidine derivatives for the treatment of neurodegenerative pathologies” (Medestea Research & Production S.p.A., priority 2004, dated 2013)
